Results from patent US20200032271A1, “COMBINATION THERAPY WITH LIPOSOMAL ANTISENSE OLIGONUCLEOTIDES” (Bio-Path Holdings, Inc., priority 2016, published 2020).
Where two headings read alike, the source gives them in different places. [PEt] = P-ethoxy (ethyl phosphotriester) internucleoside linkage

Assays:
[1] = Plasma pharmacokinetics of Grb2 antisense oligo in patients; conditions: plasma
Procedure: Pharmacokinetic (PK) analysis was performed on plasma samples collected from refractory/relapsed patients diagnosed with AML receiving BP1001 (60 mg/m^2)+LDAC or receiving BP1001 (90 mg/m^2)+LDAC.
Blood samples for measurement of Grb2 antisense oligo concentrations were collected from patients in cohorts 7 and 8, at predose, 1, 2, 4, 6, 8, 24, 72 h post start-of-infusion (SOI). Urine samples for measurement of BP1001 concentrations were also collected from patients in cohorts 7 and 8, at start of dose-4 h, 4-8 h postdose, and 8-24 h postdose. PK blood samples were processed to plasma and analyzed using a validated method (Charles River Laboratories, Montreal, Canada) with a lower limit of quantitation (LLOQ; 0.5 ng/mL). Urine samples were analyzed using a validated method (Charles River Laboratories, Montreal, Canada) with a LLOQ of 1.00 ng/mL.
PK parameters were estimated using Phoenix pharmacokinetic software (Certara). A non-compartmental approach consistent with the IV infusion route of administration was used for parameter estimation, using an estimated infusion time of 2.5 h. All parameters were generated from Grb2 antisense oligo individual concentrations in plasma from Day 1 of Cycle 1, whenever practical. […] Parameters were estimated using nominal sampling times relative to the start of infusion. The area under the concentration vs. time curve (AUC) was calculated using the linear trapezoidal method with linear interpolation. The slope of the terminal elimination phase was determined using log linear regression on the unweighted concentration data.

BV173 cells [2] = test: Cell cycle analysis (7-AAD flow cytometry); format: cell-based, human
Procedure: Cells were then fixed and permeabilized for 1 h at 4° C. with 1×Fixation/Permeabilization buffer (Ebioscience, San Diego, Calif., USA). After permeabilization, cells were washed and incubated with 7-aminoactinomycin D (7-AAD, Biolegend, San Diego, Calif., USA) in the dark at 4° C. for about 30 min. Flow cytometric data acquisition was acquired using BD FACSDiva™ software (BD Biosciences, San Jose, Calif., USA). The flow cytometer was set to collect 20,000 events. Relative percentages in the different cell cycle phases (sub-G1, G1, S, G2/M) were reported.
[…] Three days later, cells were harvested and processed for flow cytometry.

BV173 cells [3] = tested on: BV173 cells
Procedure: (§1) BV173 and K562 cells were seeded at 5 and 15×10^3 cells/well, respectively, in 96-well plates in 0.1 mL of medium. Cells were incubated with BP1001 and/or tyrosine kinase inhibitors for 4 days. The viability of untreated and treated leukemia cells was measured by the CellTiter-Glo® Luminescent Cell Viability Assay (Promega, Madison, Wis., USA). The CellTiter-Glo® Luminescent Cell Viability Assay determines the number of viable cells by quantitating the presence of ATP, an indicator of metabolically active cells.

[4] = tyrosine kinase inhibitor alone or after BP1001 pretreatment (FIG. 9A)
[5] = tyrosine kinase inhibitor alone or followed by BP1001 (FIG. 9B)
[6] = BP1001 (120 μg/mL in the combination) 1 h before 1 nM dasatinib, four days
[7] = BP1001 (120 μg/mL in the combination) 1 day before dasatinib
[8] = dasatinib 1 day, then BP1001 (120 μg/mL in the combination), read 3 days later

Procedure for K562 cells: as §1

5′-ATATTTGGCGATGGCTTC-3′ (DNA, all [PEt], methylation of C not given here) [Grb2 antisense oligo]
Tmax ([1]; 60 mg/m^2 cohort): 1 h | Tmax ([1]; 90 mg/m^2 cohort): 1 h | decrease of Vz for the dose increase from 60 to 90 mg/m^2 [1]: approximately 1.5 fold | increase of CL for the dose increase from 60 to 90 mg/m^2 [1]: approximately 1.5 fold

COc1cc(Nc2c(C#N)cnc3cc(OCCCN4CCN(C)CC4)c(OC)cc23)c(Cl)cc1Cl [bosutinib]
percentage of cells in sub-G1 phase (BV173 cells [2]; [4]): 34.3% | percentage of cells in sub-G1 phase (BV173 cells [2]; [5]): 66.1%

Cc1nc(Nc2ncc(C(=O)Nc3c(C)cccc3Cl)s2)cc(N2CCN(CCO)CC2)n1 [dasatinib]
percentage of cells in sub-G1 phase (BV173 cells [2]; BP1001 1 day before dasatinib, harvested three days later (FIGS. 8A-D)): 10.6% | percentage of cells in sub-G1 phase (BV173 cells [2]; [4]): 30.7% | percentage of cells in sub-G1 phase (BV173 cells [2]; [5]): 64.1% | decrease of viability (K562 cells; [6]): 25% | decrease of viability (K562 cells; [7]): 25% | decrease of viability (K562 cells; [8]): 12% | decrease of viability (BV173 cells [3]; [6]): 40% | decrease of viability (BV173 cells [3]; [7]): 10% | decrease of viability (BV173 cells [3]; [8]): 6%

Cc1cn(-c2cc(NC(=O)c3ccc(C)c(Nc4nccc(-c5cccnc5)n4)c3)cc(C(F)(F)F)c2)cn1 [nilotinib]
percentage of cells in sub-G1 phase (BV173 cells [2]; [4]): 26.4% | percentage of cells in sub-G1 phase (BV173 cells [2]; [5]): 65.0%

Cc1ccc(C(=O)Nc2ccc(CN3CCN(C)CC3)c(C(F)(F)F)c2)cc1C#Cc1cnc2cccnn12 [ponatinib]
percentage of cells in sub-G1 phase (BV173 cells [2]; [4]): 34.0% | percentage of cells in sub-G1 phase (BV173 cells [2]; [5]): 71.1%
